Test results reported in patent US20050215498A1, “Method for the protection of endothelial and epithclial cells during chemotherapy” (priority 2002, published 2005).
Read-outs that look alike come from different tables or passages of the source.

Assays:
[1] = test system: PBMC from normal human blood donors; experiment: Apoptosis assay (SSC-image) with PBMC; assay type: cell-based
Description: (§1) F-Ara: 10 μg/mL. D: 100 μg/mL. A: Propidium iodide staining of primary acute myeloid leukemia (AML) cells derived from a patient in blast crisis (70% blasts of total PBMC count). Results are given in mean % vitality of three independent experiments. *: p=0.008 of Control- versus F-Ara-treated AML cells. B: Flow cytometric analysis of the SSC-image of PI-negative PBMC. Shown is one representative out of five independent experiments with different blood donors.
An established method for detecting apoptosis in human endothelial cells was performed as previously described^20 using flow cytometry (FACScan™ and CellQuest™ software, Becton Dickinson, Heidelberg, Germany). Endothelial and epithelial cells were either left untreated or incubated with F-Ara in descending concentrations (range: 10 μg/mL to 0.1 μg/mL) in the presence or absence of Defibrotide for 48 hours. Afterwards, cells were washed in PBS/10% FCS and stained with the necrosis detecting dye propidium iodide (PI, 0.2 μg/mL, Sigma, Deisenhofen, Germany). Apoptotic cells were identified by a PI-negative staining and by a characteristic side scatter image distinct from that of non-apoptotic cells. At least three experiments per cell type have been performed. […]

[2] = test system: HaCaT human keratinocyte cell line; experiment: Flow cytometric apoptosis analysis in HaCaT; assay type: cell-based; conditions: Defibrotide alone, data not shown
Description: (§2) An established method for detecting apoptosis in human endothelial cells was performed as previously described^20 using flow cytometry (FACScan™ and CellQuest™ software, Becton Dickinson, Heidelberg, Germany). Endothelial and epithelial cells were either left untreated or incubated with F-Ara in descending concentrations (range: 10 μg/mL to 0.1 μg/mL) in the presence or absence of Defibrotide for 48 hours. Afterwards, cells were washed in PBS/10% FCS and stained with the necrosis detecting dye propidium iodide (PI, 0.2 μg/mL, Sigma, Deisenhofen, Germany). Apoptotic cells were identified by a PI-negative staining and by a characteristic side scatter image distinct from that of non-apoptotic cells. At least three experiments per cell type have been performed.
(§3) An alternative method for the detection of apoptosis used microscopic analysis of DNA fluorescence labeled cells. 1×10 ^5/plate endothelial cells were seeded in 35 mm petri dishes (Nunc, Wiesbaden, Germany). These cells were treated as given above and subsequently fixed with Methanol/Acetone (1:1) for 2 minutes, washed once in PBS and stained with 4,6-Diamidino-2-phenylindole (DAPI) (0.5 μg/mL, Sigma, Deisenhofen, Germany), dissolved in 20% Glycerin/PBS. […]
(§4) Skin, the gastrointestinal tract (GIT) and most likely the lung are among the primary targets of GvHD. […] Again, the protective potential of Defibrotide (100 μg/mL) was assessed.

[3] = test system: MHC class I molecules on HMEC; experiment: Flow cytometric analysis of MHC class I on HMEC; assay type: cell-based, human; conditions: for induction of mean fluorescence intensity of MHC class I: 24 hours
Description: (§5) Cell surface expression of ICAM-1 (Becton Dickinson/Pharmingen, Heidelberg, Germany) and MHC class I (w6/32, hybridoma supernatant, ATCC, Manassas, Va., USA) molecules on HMEC was assessed by the indirect immunofluorescence technique and subsequent flow cytometry using the FACScan™ flow cytometer and the Cell-Quest™ analysis program (Becton Dickinson, Heidelberg, Germany). Endothelial cells were treated as given and after incubation harvested with trypsin/EDTA (Gibco), washed once in cold PBS/10% FCS and incubated 1 hour on ice with 5 μg/mL of anti-adhesion molecule MoAbs. Cells were washed again and incubated with a goat anti-mouse IgG-FITC conjugated antibody F(ab)2 fragment (Dako, Hamburg, Germany) for 45 minutes on ice. Cells were then washed in PBS/10% FCS and subjected to analysis. Viability of the cells was determined by concurrent propidium iodide (0.2 μg/mL, Sigma, Deisenhofen, Germany) staining. Omitting of the first antibody served as a negative control to detect unspecific fluorescence.
(§6) Since a proinflammatory activation of target cells is often associated with increased expression of major histocompatibility antigens (MHC) class I and II, we did further flow cytometric analyses for these antigens after incubation with F-Ara in various concentrations for 24 hours.

[4] = test system: endothelial cells; experiment: Radiation induced endothelial cell death; assay type: cell-based; conditions: data not shown
Description: Since in many pre-transplant protocols fludarabine is used in combination with ionizing radiation it was important to test whether these two compounds would cooperate in affecting endothelial cells.

[5] = test system: HMEC as target cells for allogeneic CTL; experiment: 51Cr release assay, lysis of HMEC by allogeneic PBMC / CD8+ CTL; assay type: cell-based, human
Description: Peripheral blood mononuclear cells (PBMC) were derived from heparinized (Novo Nordisk, Mainz, Germany) blood of healthy human volunteers or buffy coats from the Bavarian Red Cross according to a standard protocol using Ficoll hypaque (Pharmacia, Freiburg, Germany) density gradient centrifugation. Cells were then stimulated in a ratio of 1:1 and 2:1 with irradiated (20 Gy) HMEC for 7 days in the presence of Interleukin 2 (50 U/mL) and 10% human AB serum (Sigma, Deisenhofen, Germany). Alternatively, PBMC were selected for CD8+ T cells and natural killer (NK) cells using cell isolation kits according to the manufactuer's instructions (MACS™, Miltenyi Bio-tech, Bergisch-Gladbach, Germany) based on the deletion of non CD8+ and non NK cells, respectively. Stimulation of the selected cells was identical to that of whole PBMC cultures, except for NK cells which were stimulated for only 3 days.
T cell- or NK-cell mediated cytotoxicity was assessed according to a well established protocol,^23 using a 4h ^51Cr radioisotope assay. HMEC that had either been left untreated or incubated with F-Ara (10μg/mL) overnight were used as target cells, to be labeled 0.4 mCi Na2^51CrO4 for 2 hours. After 3 washing steps, target cells were adjusted to 10^4 cells/mL and coincubated with PBMC, CD8+ or NK effector cells at descending effector to target ratios for another 4 hours. Supernatants were transfered to dry scintillation plates and counted in a γ-counter (all from Canberra Packard, Darmstadt, Germany). Autologous (effector) B-Lymphoblastoid cell lines (B-LCL) and K562 as NK sensitive cells were taken as additional control targets. The percentage of specific lysis was calculated as: [(experimental release−spontaneous release)/(maximal release−spontaneous release)]×100. Spontaneous release in all experiments was always below 20%. […]

[6] = test system: A549 alveolar epithelial cells; experiment: Flow cytometric apoptosis analysis in A549; assay type: cell-based, human; conditions: Defibrotide alone, data not shown
Description: as §2, §3, §4

[7] = test system: ICAM-1 expression on HMEC; experiment: Flow cytometric analysis of ICAM-1 expression on HMEC; assay type: cell-based, human
Description: as §5
Based on previous observations that pretransplant conditioning not only damages, but also leads to proinflammatory activation of endothelial cells in terms of adhesion molecule induction,^15 we next investigated the expression of ICAM-1 under the influence of F-Ara. […] We next asked whether Defibrotide would also be functional as an antagonist of F-Ara in this experimental setting. HMEC were treated with F-Ara as given and incubated in the presence or absence of descending concentrations of Defibrotide.

[8] = test system: primary acute myeloid leukemia (AML) cells; experiment: Propidium iodide staining (vitality) of primary AML cells; assay type: cell-based, human; conditions: 48 hours
Description: as §1
Next to its desirable protective capacity for endothelial and epithelial cells against F-Ara induced apoptosis it was important to investigate whether Defibrotide would also interfere with the anti-leukaemic properties of F-Ara. To address this question, primary peripheral blood derived acute myeloid leukaemic (AML) cells with a blast amount of 70% were thawed, kept in culture for 24 hours and subsequently treated with F-Ara in the presence or absence of Defibrotide for another 48 hours. […] However, F-Ara induced cell death in up to 80% of the cells. […] This could be observed after as early as 24 hours of incubation. […] We next asked whether Defibrotide might modulate the effect of F-Ara against normal haematopoetic cells and performed apoptosis assays (SSC-image) with PBMC from normal human blood donors. […]

[9] = test system: human microvascular endothelial cells (HMEC); assay type: cell-based
Description: All cell culture reagents have been purchased by Gibco BRL (Karlsruhe, Germany) unless stated otherwise. 2-Fluoroadenine 9-beta-D-arabinofuranoside (F-Ara) was obtained from Sigma, Deisenhofen, Germany, Defibrotide vials were obtained from Prociclide™, Crinos, Como, Italy.
as §2
An alternative method for the detection of apoptosis used microscopic analysis of DNA fluorescence labeled cells. 1×10 ^5/plate endothelial cells were seeded in 35 mm petri dishes (Nunc, Wiesbaden, Germany). These cells were treated as given above and subsequently fixed with Methanol/Acetone (1:1) for 2 minutes, washed once in PBS and stained with 4,6-Diamidino-2-phenylindole (DAPI) (0.5 μg/mL, Sigma, Deisenhofen, Germany), dissolved in 20% Glycerin/PBS. Samples were mounted and subjected to microscopic analysis.
In order to assess the influence of F-Ara on the viability of cultured human endothelial cells, HMEC were incubated with descending pharmacologically relevant concentrations (10 μg/mL to 0.1 μg/mL) of 2-Fluoroadenine 9-beta-D-arabinofuranoside as the metabolized form of fludarabine. […] After 48 hours of incubation HMEC were subjected to apoptosis assays using the detection of cellular granularity of propidium iodide negative cells (side scatter (SSC) image in flow cytometry) and microscopic analyses of DAPI-stained cells, respectively.
In order to exclude unspecific artifical extracellular interaction of F-Ara and Defibrotide in vitro HMEC were pretreated with Defibrotide for 1 hour and subsequently, after 3 washing steps, incubated with F-Ara for another 48 hours and vice versa.

[10] = manufacturers's instructions, cited from earlier work
[11] = test system: HMEC as target cells for allogeneic NK cells; experiment: 51Cr release assay, lysis of HMEC by allogeneic NK cells; assay type: cell-based, human; conditions: F-Ara 10 μg/mL, 24 hours
Description: T cell- or NK-cell mediated cytotoxicity was assessed according to a well established protocol,^23 using a 4h ^51Cr radioisotope assay. HMEC that had either been left untreated or incubated with F-Ara (10μg/mL) overnight were used as target cells, to be labeled 0.4 mCi Na2^51CrO4 for 2 hours. After 3 washing steps, target cells were adjusted to 10^4 cells/mL and coincubated with PBMC, CD8+ or NK effector cells at descending effector to target ratios for another 4 hours. Supernatants were transfered to dry scintillation plates and counted in a γ-counter (all from Canberra Packard, Darmstadt, Germany). […] The percentage of specific lysis was calculated as: [(experimental release−spontaneous release)/(maximal release−spontaneous release)]×100.

[12] = test system: BEAS-2B bronchial epithelial cell line and primary bronchial epithelial cells; experiment: Flow cytometric apoptosis analysis in bronchial epithelial cells; assay type: cell-based; conditions: F-Ara 10 μg/mL, 48 hours
Description: as §2
(§7) Skin, the gastrointestinal tract (GIT) and most likely the lung are among the primary targets of GvHD. Therefore, it was reasonable to test the influence of F-Ara on cell lines derived from these organs. Cells from keratinocyte (HaCaT), GIT (SW 480), alveolar (A549) and bronchial epithelial (BEAS-2B) cell lines as well as primary bronchial epithelial cells were incubated with F-Ara (10 μg/mL) as given for FIGS. 1 and 2 and assayed in flow cytometric apoptosis analyses 48 hours post treatment. […] Again, the protective potential of Defibrotide (100 μg/mL) was assessed.

[13] = test system: MHC class II on HMEC; conditions: F-Ara various concentrations, 24 hours, data not shown
Description: as §5, §6

[14] = test system: SW 480 gut epithelial cell line; experiment: Flow cytometric apoptosis analysis in SW 480; assay type: cell-based; conditions: F-Ara 10 μg/mL, 48 hours
Description: as §2, §7

Defibrotide
% apoptotic cells ([1]; F-Ara 10 μg/mL with Defibrotide 100 μg/mL): 43.1% | number of apoptotic cells [2]: did not influence the number of apoptotic cells | MHC class I molecules, F-Ara versus F-Ara+D treated HMEC ([3]; data not shown): significant downregulation | protection against radiation induced endothelial cell damage [4]: not protective | specific lysis of HMEC by CD8+ CTL ([5]; pretreatment of target HMEC with F-Ara and Defibrotide (F-Ara+D)): downregulated specific lysis even below control levels | number of apoptotic cells [6]: did not influence the number of apoptotic cells | F-Ara induced ICAM-1 expression ([7]; Defibrotide 100 μg/mL and 10 μg/mL with F-Ara 10 μg/mL): antagonized | ICAM-1 expression ([7]; Defibrotide alone, every concentration tested, data not shown): remained unchanged | protection of AML cells from F-Ara mediated toxicity ([8]; Defibrotide 100 μg/mL with F-Ara 10 μg/mL): not able to protect | protection of F-Ara induced cell death ([9]; Defibrotide 100 to 0.1 μg/mL with F-Ara 10 μg/mL, 48 hours): dose-dependent protection | endothelial cell viability ([9]; Defibrotide alone, 48 hours): did not influence endothelial cell viability | protection from F-Ara induced apoptosis ([9]; pretreatment with Defibrotide 1 hour, washing, then F-Ara 48 hours): sufficient to protect cells | endothelial programmed cell death ([9]; pretreatment with F-Ara 1 hour, subsequent incubation with Defibrotide): did not lead to endothelial programmed cell death

Nc1nc(F)nc2c1ncn2[C@@H]1O[C@H](COP(=O)(O)OP(=O)(O)OP(=O)(O)O)[C@@H](O)[C@@H]1O [fludarabine triphosphate]
median intracellular level in target cells ([10]; concentration representing 20 μM): 5.8 µg/mL | median intracellular level in target cells [10]: 20 µM

Nc1nc(F)nc2c1ncn2[C@@H]1O[C@H](CO)[C@@H](O)[C@@H]1O [F-Ara, 2-fluoro-9-β-D-arabinofuranosyladenine]
% apoptotic cells ([1]; F-Ara 10 μg/mL, untreated control 5.1%): 40.1% | allogenicity of HMEC towards NK cells [11]: significantly downregulated | induction of mean fluorescence intensity of MHC class I ([3]; F-Ara 5 μg/mL): 1.3 fold | induction of mean fluorescence intensity of MHC class I ([3]; F-Ara 10 μg/mL): 1.5 fold | enhancement of radiation induced cell death ([4]; combination with ionizing radiation): could not find any enhancement | lysis of F-Ara-treated HMEC by CD8+ CTL versus control HMEC ([5]; CD8+ selected effectors): significantly higher | antigenicity of HMEC towards allogeneic PBMC ([5]; F-Ara (1 μg/mL) treated targets, all E/T ratios tested): increased the antigenicity | apoptosis induction [12]: resistant | concentrations effective in inducing ICAM-1 ([7]; 24 hours): ≥ 1 µg/mL | ICAM-1 expression on HMEC ([7]; F-Ara, 24 hours of incubation): significantly enhances expression | MHC class II expression [13]: remained unchanged | cell death of AML cells ([8]; F-Ara 10 μg/mL, almost 50% died spontaneously): up to 80% | apoptosis induction [14]: resistant | apoptosis in HMEC ([9]; F-Ara 1 μg/mL, 48 hours): no longer effective | apoptosis in HMEC ([9]; F-Ara 10 and 5 μg/mL, 48 hours): causes apoptosis | apoptosis in HMEC ([9]; after 24h, data not shown): already detectable
